# In PMC6008883, “Identification of Peptide Antagonists to Thioredoxin Glutathione Reductase of Schistosoma japonicum” (BioMed Research International, 2018):
# Tests used:
# [1] = system: TrxR of SjTGR (thioredoxin glutathione reductase of Schistosoma japonicum); assay: Inhibition of TrxR activity of SjTGR; assay type: biochemical; conditions: phage clone, 10^11 pfu; SjTGR 48 nM; vs activity of SjTGR without phage; repeated three times; P<0.01 vs phage library for JIPDys1, JIPDys2, JIPDys3
# Experimental: To assess the inhibitory action of phages, the activities of TrxR, GR, and glutaredoxin (Grx) of SjTGR were assayed as described in [21]. […], phage library was used as negative phage control, and the effect of phages on the activity of SjTGR was expressed as percentage inhibition: Inhibition percentage = (activity of SjTGR – activity of SjTGR with isolated phage)/activity of SjTGR. The experiment was repeated three times.
# (§1) The activities of TrxR, GR, and Grx of SjTGR were assayed with different concentrations (0.5 μM, 1 μM, and 2 μM) of the synthesized peptide JIPDys1 to determine the 50% inhibitory concentration (IC50), and the same amount of PBS was added to the system as control. The experiment was repeated three times. The IC50 values were calculated by curve fitting using the SPSS 13.0 software.
# (§2) All data are given as the mean ± standard deviation (SD). The activities of TrxR, GR, and Grx of SjTGR (absorbance/S (ΔA/S)) with JIPDys1, JIPDys2, JIPDys3, and JIPDys4 were statistically compared with the negative phage control (phage library) using two-tailed Student's t-tests. The activities of TrxR, GR, and Grx of SjTGR (absorbance/S (ΔA/S)) with the synthesized peptide were statistically compared with PBS control using two-tailed Student's t-tests, too. SPSS 13.0 was used for the statistical analyses. Differences between mean values were considered to be significant at the level of 5%.
# [2] = system: GR of SjTGR (thioredoxin glutathione reductase of Schistosoma japonicum); assay: Inhibition of GR activity of SjTGR; assay type: biochemical; conditions: phage clone, 10^11 pfu; SjTGR 48 nM; vs activity of SjTGR without phage; repeated three times; P<0.01 vs phage library for JIPDys1, JIPDys2
# Experimental: To assess the inhibitory action of phages, the activities of TrxR, GR, and glutaredoxin (Grx) of SjTGR were assayed as described in [21]. […] system, phage library was used as negative phage control, and the effect of phages on the activity of SjTGR was expressed as percentage inhibition: Inhibition percentage = (activity of SjTGR – activity of SjTGR with isolated phage)/activity of SjTGR. The experiment was repeated three times.
# as §1, §2
# [3] = system: Grx of SjTGR (thioredoxin glutathione reductase of Schistosoma japonicum); assay: Inhibition of Grx activity of SjTGR; assay type: biochemical; conditions: phage clone, 10^11 pfu; SjTGR 48 nM; vs activity of SjTGR without phage; repeated three times; P<0.01 vs phage library for JIPDys1, JIPDys3
# Experimental: (§3) To assess the inhibitory action of phages, the activities of TrxR, GR, and glutaredoxin (Grx) of SjTGR were assayed as described in [21]. 10 μl ([…]) of phage solution was added to the reaction system, phage library was used as negative phage control, and the effect of phages on the activity of SjTGR was expressed as percentage inhibition: Inhibition percentage = (activity of SjTGR – activity of SjTGR with isolated phage)/activity of SjTGR. The experiment was repeated three times.
# as §1, §2
# SjTGR [4] = assay: Phage binding to recombinant SjTGR by ELISA; set-up: species or system Schistosoma japonicum; conditions: mean of triplicates; for Binding to SjTGR (ELISA OD450nm): phage 1×10^12 pfu/ml, HRP-conjugated anti-M13 antibody, TMB, positive if OD450nm 2.1 times above negative control, binding decreased with decreasing titers
# Experimental: Phage clones were amplified according to the manual. A 96-well plate was coated with 100 μl of SjTGR solution (10 μg/ml, 0.1 M NaHCO3, pH 8.6) overnight at 4°C. After blocking with PBS containing 5% milk powder at rt for 1 h, 100 μl of phage solution with titers of 1 x 10^12, 2.5 x 10^11, 6 x 10^10, 1.5 x 10^10, and 3.75 x 10^9 pfu/ml was used per well, respectively. The phage library was set as the negative phage control. Following an incubation at 37°C for 2 h and six washes with TBST (0.5% Tween-20), 200 μl of diluted HRP-conjugated anti-M13 monoclonal antibody solution was added for 1 h at rt. Following six washes with TBST, 100 μl of substrate TMB solution was added for 10 minutes at rt. 50 μl of 2 M sulfuric acid solution (H2SO4) was added to terminate the reaction and absorbance at 450nm was measured. OD450nm values 2.1 times above the negative control value were considered positive.
# SjTGR [5] = assay: Inhibition of SjTGR enzyme activity (TrxR, GR and Grx overall); assay type: biochemical, Schistosoma japonicum; conditions: JIPDys1 from phage screening
# Experimental: as §3, §1
Sequence,Percentage of inhibition of TrxR [1],Percentage of inhibition of GR [2],Percentage of inhibition of Grx [3],Binding to SjTGR (ELISA OD450nm) (SjTGR [4]),"Binding capacity compared with the other phages (SjTGR [4]; ELISA, phage titers 3.75 x 10^9 to 1.0 x 10^12 pfu/ml)",Inhibition of SjTGR activity (SjTGR [5])
"LHAETRSAMHRT [JIPDys2, M13 phage clone from Ph.D.-12 library displaying peptide …]",45.24%,69.43%,25.64%,bound to SjTGR,,
"WPHNWWPHFKVK [JIPDys1, M13 phage clone from Ph.D.-12 library displaying peptide …]",59.04%,80.80%,53.56%,bound to SjTGR,strongest binding capacity among those phages,more than 50%
"YTMPSLTLYAMG [JIPDys3, M13 phage clone from Ph.D.-12 library displaying peptide …]",54.72%,20.88%,43.02%,bound to SjTGR,,
"KHMHWHPPALNT [JIPDys4, M13 phage clone from Ph.D.-12 library displaying peptide …]",0.73%,1.50%,1.23%,bound to SjTGR,,
